Structures can show the parent of a compound that is named as a salt.
Columns and labels:
[1] = Solubility test: dissolution of crystalline form sample in water; type: physicochemical; settings: 25±5° C.; for dissolubility of samples (300 mg/mL): about 600 mg sample in water (2 mL), ultrasonic vibration, visual check for solute particles; for solubility in water (conclusion from Table 1): 300 mg/mL
Method: About 600 mg of a crystalline form sample was added to water (2 mL). The dissolution of the sample was obtained with ultrasonic vibration at 25±5° C. No visible solute particles mean that the sample has a complete dissolution in water; whereas visible solute particles mean that the sample precipitates in water.

[2] = Stability test: impurity content by HPLC under storage conditions; type: physicochemical; settings: for stability under the experimental conditions (conclusion from Tables 2 and 3): high temperature, accelerated, mediated, high humidity and illumination conditions, up to 30 days
Method: A crystalline form sample was put in a watch glass in the form of a thin layer of ≦5 mm. The stability test was conducted under different conditions: high temperature (60±2° C.) for 30 days, accelerated condition (40±2° C., 75%±5% humidity) for 30 days, mediated condition (30±2° C., 65%±5% humidity) for 30 days, high humidity (25±2° C., 90%±5%) for 10 days and illumination condition (visible light 4500 lx±500 lx with ultraviolet light not lower than 0.7 W·h/m^2, 25±2° C., 60%±5% relative humidity) for 10 days respectively. The impurity contents of crystalline forms B and C were determined at various time points (0, 10, 20, and 30 days) by high performance liquid chromatography (HPLC) with peak area normalization.

[3] = accelerated condition (40±2° C., 75%±5% humidity), 0 day
[4] = accelerated condition (40±2° C., 75%±5% humidity), 10 days
[5] = accelerated condition (40±2° C., 75%±5% humidity), 20 days
[6] = accelerated condition (40±2° C., 75%±5% humidity), 30 days
[7] = high humidity (25±2° C., 90%±5%), 0 day
[8] = high humidity (25±2° C., 90%±5%), 10 days
[9] = high temperature (60±2° C.), 0 day
[10] = high temperature (60±2° C.), 10 days
[11] = high temperature (60±2° C.), 20 days
[12] = high temperature (60±2° C.), 30 days
[13] = illumination condition (visible light 4500 lx±500 lx with UV, 25±2° C., 60%±5% relative humidity), 0 day
[14] = illumination condition (visible light 4500 lx±500 lx with UV, 25±2° C., 60%±5% relative humidity), 10 days
[15] = mediated condition (30±2° C., 65%±5% humidity), 0 day
[16] = mediated condition (30±2° C., 65%±5% humidity), 10 days
[17] = mediated condition (30±2° C., 65%±5% humidity), 20 days
[18] = mediated condition (30±2° C., 65%±5% humidity), 30 days

Row | SMILES | dissolubility of samples (300 mg/mL) [1] | solubility in water (conclusion from Table 1) [1] | impurity content by HPLC [2, 3] [%] | impurity content by HPLC [2, 4] [%] | impurity content by HPLC [2, 5] [%] | impurity content by HPLC [2, 6] [%] | impurity content by HPLC [2, 7] [%] | impurity content by HPLC [2, 8] [%] | impurity content by HPLC [2, 9] [%] | impurity content by HPLC [2, 10] [%] | impurity content by HPLC [2, 11] [%] | impurity content by HPLC [2, 12] [%] | stability under the experimental conditions (conclusion from Tables 2 and 3) [2] | impurity content by HPLC [2, 13] [%] | impurity content by HPLC [2, 14] [%] | impurity content by HPLC [2, 15] [%] | impurity content by HPLC [2, 16] [%] | impurity content by HPLC [2, 17] [%] | impurity content by HPLC [2, 18] [%]
1 | CCOC(=O)C1=C(CN2CCOCC2)NC(c2nccs2)=NC1c1ccc(F)cc1Br (single isomer, unassigned) [form B, 6[R,S]-ethyl 6-(2-bromo-4-fluorophenyl)-4-(morpholinomethyl)-2-(thiazol-2-yl)-1,6-dihydro pyrimidine-5-carboxylate mesylate] | completely dissolved, some sample precipitated | good solubility in water | 0.06 | 0.09 | 0.08 | 0.10 | 0.06 | 0.06 | 0.06 | 0.13 | 0.20 | 0.24 | did not degrade or change | 0.06 | 0.12 | 0.06 | 0.10 | 0.13 | 0.12
2 | CCOC(=O)C1=C(CN2CCOCC2)NC(c2nccs2)=NC1c1ccc(F)cc1Br (single isomer, unassigned) [form C, 6[R,S]-ethyl 6-(2-bromo-4-fluorophenyl)-4-(morpholinomethyl)-2-(thiazol-2-yl)-1,6-dihydro pyrimidine-5-carboxylate mesylate] | completely dissolved, no sample precipitated | good solubility in water | 0.03 | 0.04 | 0.04 | 0.04 | 0.03 | 0.04 | 0.03 | 0.06 | 0.03 | 0.03 | did not degrade or change | 0.03 | 0.03 | 0.03 | 0.03 | 0.03 | 0.03
